# Measured values: patent publication US20220380347A1, “INHIBITORS OF CYSTEINE PROTEASES AND METHODS OF USE THEREOF” (Pardes Biosciences, Inc., priority 2020, published 2022)
# Read-outs that look alike come from different tables or passages of the source.
# Columns and labels:
# [1] = biological target: 229E Mpro (Human coronavirus 229E, UniProt P0C6X1); test: 229E Mpro enzymatic assay (standard methods, SARS-CoV2 Mpro assay given as exemplary); format: biochemical, human coronavirus (HCov) 229E
# 229E Mpro, sequence (P0C6X1 2966-3267): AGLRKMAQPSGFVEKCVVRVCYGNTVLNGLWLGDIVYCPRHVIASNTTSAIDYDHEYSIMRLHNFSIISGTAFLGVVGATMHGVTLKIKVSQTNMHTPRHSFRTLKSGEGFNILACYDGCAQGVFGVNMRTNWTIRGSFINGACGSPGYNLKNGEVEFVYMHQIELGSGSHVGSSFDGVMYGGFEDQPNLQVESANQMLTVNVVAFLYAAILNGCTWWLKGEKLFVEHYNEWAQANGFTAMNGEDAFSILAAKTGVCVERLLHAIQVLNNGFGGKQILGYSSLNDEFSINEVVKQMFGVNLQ
# Method: Compounds were assayed using standard methods to assess compound activity and IC50. As an exemplary for assessment of the SARS-COV2 Mpro, the C-His6-tagged Mpro (NC_045512) was cloned, expressed in E. coli and purified. The assay buffer contained 20 mM of Tris-HCl (pH 7.3), 100 mM of NaCl, 1 mM of EDTA, 5 mM of TCEP and 0.1% BSA. The final concentrations of the Mpro protein and substrate were 25 nM and 25 μM, respectively, in the Mpro enzymatic assay. The Km of the Mpro substrate for the protease was 13.5 μM.
# The compounds were added to an assay plate. […] For no inhibition control (ZPE, zero percent effect), no compound was added.
# IC50 values of compounds were calculated with the GraphPad Prism software using the nonlinear regression model of log(inhibitor) vs. response—Variable slope (four parameters). The inhibition activity was calculated using the formula below, IC50 values is calculated using the Inhibition % data.
# Inhibition %=[(Sample-Average ZPE)/(Average HPE-Average ZPE)]*100%^#
# [2] = biological target: COVID-19 (nCoV-2019, SARS-CoV2) Mpro (Severe acute respiratory syndrome coronavirus 2, UniProt P0DTD1); test: COVID-19 (nCoV-2019, SARS-CoV2) Mpro enzymatic assay; format: biochemical; conditions: 25 nM Mpro, 25 μM substrate; read-out: COVID-19 Mpro IC50
# [3] = test system: HCov OC43; test: HCoV OC43 cytopathic effect (CPE) assay, CellTiter Glo; format: cell-based, human coronavirus (HCov) OC43
# Method: Example 238: Evaluation of antiviral activity of compounds against human coronavirus (HCov) 229E and OC43 in the cytopathic effect (CPE) assays
# Compounds were assayed using standard methods against multiple coronaviral strains, including HCoV 229E and OC43 strains. The antiviral activity of compounds was calculated based on the protection of the virus-induced CPE at each concentration normalized by the virus control.
# Reference compound used was remdesivir; detection reagent: CellTiter Glo.) The CPE were measured by CellTiter Glo following the manufacturer's manual. The antiviral activity of compounds was calculated based on the protection of the virus-induced CPE at each concentration normalized by the virus control.
# Cell viability was measured with CellTiter Glo.
# [4] = read-out: OC43 IC50 (uM) MEDIAN, median
# [5] = Betacoronavirus 1, OC43, read-out: OC43 IC50 (uM) MEDIAN, median
SMILES,EC50 ([1]; 229E Mpro EC50) [µM],IC50 [2] [µM],"IC50 [3, 4] [µM]",EC50 ([1]; read-out: 229E Mpro EC50) [µM],"IC50 [3, 5] [µM]"
"CC(C)(C)c1ccc(N(C(=O)[C@H]2C[C@@H](Oc3ccccc3)CN2C#N)C(C(=O)NC2CCCCC2)c2cccnc2)cc1 (single isomer, unassigned) [307 Isomer 2]",2 to 10,> 30,2 to 10,–,–
"CC(C)(C)c1ccc(N(C(=O)[C@H]2CCCN2C#N)C(C(=O)NCCN2CCOCC2)c2cccnc2)cc1 (single isomer, unassigned) [391 Isomer 1]",< 2,< 2,< 2,–,–
"CC(C)(C)c1ccc(N(C(=O)[C@H]2CCCN2C#N)C(C(=O)NCCN2CCOCC2)c2cccnc2)cc1 (single isomer, unassigned) [391 Isomer 2]",2 to 10,10 to 30,10 to 30,–,–
"CC(C)(C)c1ccc(N(C(=O)[C@H]2CCCN2C#N)C(C(=O)NC2CCCCC2)c2cncc(F)c2)cc1 (single isomer, unassigned) [475 Isomer 1]",< 2,< 2,2 to 10,–,–
"CC(C)(C)c1ccc(N(C(=O)[C@H]2CCCN2C#N)C(C(=O)NC2CCCCC2)c2cncc(F)c2)cc1 (single isomer, unassigned) [475 Isomer 2]",2 to 10,10 to 30,10 to 30,–,–
"CC(C)(C)c1ccc(N(C(=O)[C@H]2C[C@@H](O)CN2C#N)C(C(=O)NC2CCCC2)c2cccnc2)cc1 (single isomer, unassigned) [595 Isomer 2]",–,< 2,< 2,< 2,–
"CC(C)(C)c1ccc(N(C(=O)[C@H]2C[C@@H](O)CN2C#N)C(C(=O)NCc2cccnc2)c2cccnc2)cc1 (single isomer, unassigned) [643 Isomer 1]",< 2,< 2,–,–,< 2
"CC(C)(C)c1ccc(N(C(=O)[C@H]2C[C@@H](O)CN2C#N)C(C(=O)NCc2cccnc2)c2cccnc2)cc1 (single isomer, unassigned) [643 Isomer 2]",–,2 to 10,2 to 10,< 2,–
"COCCCNC(=O)C(c1cccnc1)N(C(=O)[C@H]1C[C@@H](O)CN1C#N)c1ccc(C(C)(C)C)cc1 (single isomer, unassigned) [647 Isomer 1]",< 2,< 2,–,–,< 2
"CC(C)(C)c1ccc(N(C(=O)[C@H]2CCCN2C#N)C(C(=O)NC2CCCCC2)c2cccnc2)cc1 (single isomer, unassigned) [Compound 130a]",< 2,< 2,–,–,–
"CC(C)(C)c1ccc(N(C(=O)[C@H]2CCCN2C#N)C(C(=O)NC2CCCCC2)c2cccnc2)cc1 (single isomer, unassigned) [Compound 130b]",2 to 10,> 30,–,–,–
"CC(C)(C)OC(=O)N1CCC[C@@H]1C(=O)N(c1ccc(C(C)(C)C)cc1)C(C(=O)NC1CCCCC1)c1cccnc1 (single isomer, unassigned) [Compound 131a]",> 30,> 30,–,–,–
"CC(C)(C)c1ccc(N(C(=O)[C@@H]2CCCN2)C(C(=O)NC2CCCCC2)c2cccnc2)cc1 (single isomer, unassigned) [Compound 131c]",> 30,> 30,–,–,–
"N#CN1C[C@H]2C[C@H]2[C@@H]1C(=O)N(c1ccc(S(F)(F)(F)(F)F)cc1)C(C(=O)NC1CCC(F)(F)CC1)c1cncc(F)c1 (single isomer, unassigned) [Compound 1095b Isomer 2]",–,< 2,< 2,–,–
CC(C)(C)c1ccc(N(C(=O)c2cnc[nH]2)C(C(=O)NC2CCCCC2)c2cccnc2Br)cc1 (stereo not shown) [Compound 100a],–,> 30,–,–,–
CC(C)(C)c1ccc(N(C(=O)c2cnc[nH]2)C(C(=O)NC2CCCCC2)c2ccc(C(F)(F)F)nc2Cl)cc1 (stereo not shown) [Compound 102a],–,> 30,–,–,–
"CC(C)(C)c1ccc(N(C(=O)c2cnc[nH]2)C(C(=O)NC2CCCCC2)c2cncnc2)cc1 (stereo not shown) [Compound 104, N-(4-tert-butylphenyl)-N-[2-(cyclohexylamino)-2-oxo-1-pyrimidin-5-yl-ethyl]-1H-imidazole-5-carboxamide]",–,2 to 10,–,–,–
CC(C)(C)c1ccc(N(C(=O)c2cnc[nH]2)C(C(=O)NC2CCCCC2)c2ncc(Cl)nc2C#N)cc1 (stereo not shown) [Compound 110],> 30,> 30,–,–,–

SMILES,EC50 ([1]; 229E Mpro EC50) [µM],IC50 [2] [µM],"IC50 [3, 4] [µM]",EC50 ([1]; read-out: 229E Mpro EC50) [µM],"IC50 [3, 5] [µM]"
"CC(C)(C)c1ccc(N(C(=O)c2nsnc2C#N)C(C(=O)NC2CCCCC2)c2cccnc2)cc1 (stereo not shown) [Compound 122, N-(4-tert-butylphenyl)-4-cyano-N-[2-(cyclohexylamino)-2-oxo-1-(3-pyridyl)ethyl]-1,2,5-thiadiazole-3-carboxamide]",–,–,–,> 30,–
CC(C)(C)c1ccc(N(C(=O)c2nsnc2C(N)=O)C(C(=O)NC2CCCCC2)c2cccnc2)cc1 (stereo not shown) [Compound 123a],> 30,> 30,–,–,–
CC(C)(C)c1ccc(N(C(=O)c2nccnc2C(N)=O)C(C(=O)NC2CCCCC2)c2cccnc2)cc1 (stereo not shown) [Compound 124a],> 30,> 30,–,–,–
CC(C)(C)OC(=O)N1CC(C(=O)N(c2ccc(C(C)(C)C)cc2)C(C(=O)NC2CCCCC2)c2cccnc2)C1 (stereo not shown) [Compound 126],> 30,> 30,–,–,–
CC(C)(C)c1ccc(N(C(=O)C2CNC2)C(C(=O)NC2CCCCC2)c2cccnc2)cc1 (stereo not shown) [Compound 127],> 30,> 30,–,–,–
CC(C)(C)OC(=O)N1CC(C)(C(=O)N(c2ccc(C(C)(C)C)cc2)C(C(=O)NC2CCCCC2)c2cccnc2)C1 (stereo not shown) [Compound 129],> 30,> 30,–,–,–
CC1(C(=O)N(c2ccc(C(C)(C)C)cc2)C(C(=O)NC2CCCCC2)c2cccnc2)CNC1 (stereo not shown) [Compound 129a],> 30,> 30,–,–,–
CC(C)(C)c1ccc(N(C(=O)[C@@H]2CCCN2C#N)C(C(=O)NC2CCCCC2)c2cccnc2)cc1 (stereo partly shown) [Compound 130c],> 30,> 30,–,–,–
CC(C)(C)OC(=O)N1CCC[C@@H]1C(=O)N(c1ccc(C(C)(C)C)cc1)C(C(=O)NC1CCCCC1)c1cccnc1 (stereo partly shown) [Compound 131b],–,> 30,–,> 30,–
CC(C)(C)c1ccc(N(C(=O)[C@@H]2CCCN2)C(C(=O)NC2CCCCC2)c2cccnc2)cc1 (stereo partly shown) [Compound 131d],–,> 30,–,> 30,–
CC(C)(C)c1ccc(N(C(=O)[C@H]2N(C#N)CC2(C)C)C(C(=O)NC2CCCCC2)c2cccnc2)cc1 (stereo partly shown) [Compound 136a],> 30,> 30,–,–,–
CC(C)(C)c1ccc(N(C(=O)[C@H]2NCC2(C)C)[C@H](C(=O)NC2CCCCC2)c2cccnc2)cc1 [Compound 136b],> 30,> 30,–,–,–
CC(C)(C)c1ccc(N(C(=O)[C@H]2NCC2(C)C)[C@@H](C(=O)NC2CCCCC2)c2cccnc2)cc1 [Compound 136c],> 30,> 30,–,–,–
NC(=O)c1nc(C2CC2)ccc1N(C(=O)c1cnc[nH]1)[C@@H](C(=O)NC1CCCCC1)c1cccnc1 [Compound 832],–,–,–,2 to 10,–
NC(=O)c1nc(C2CC2)ccc1N(C(=O)c1cnc[nH]1)[C@H](C(=O)NC1CCCCC1)c1cccnc1 [Compound 833],2 to 10,2 to 10,–,–,–
CC(C)(C)c1ccc(N(C(=O)[C@@H]2CCN2)[C@H](C(=O)NC2CCCCC2)c2cccnc2)cc1 [Compound 846],–,–,–,< 2,–
"CC(C)(C)c1ccc(N(C(=O)c2scnc2C#N)C(C(=O)NC2CCCCC2)c2cccnc2)cc1 (stereo not shown) [Compound 899, N-(4-tert-butylphenyl)-4-cyano-N-[2-(cyclohexylamino)-2-oxo-1-(3-pyridyl)ethyl]thiazole-5-carboxamide]",–,> 30,–,–,–
CC(C)(C)c1ccc(N(C(=O)c2scnc2Cl)C(C(=O)NC2CCCCC2)c2cccnc2)cc1 (stereo not shown) [Compound 899a],–,> 30,–,–,–
